Test results published in ChEMBL document CHEMBL1201862, “PubChem BioAssay data set” (2004).
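Tested at 5 concentrations; 48 h exposure; 96-well plates; endpoints linearly interpolated, else capped at highest concentration. Here, GI50 denotes the concentration required for 50% inhibition of growth.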 The source made the active and inactive calls. Cut-off read from the data, not from the text of the source: active = GI50 up to about 1.1 µM and inactive = higher.

Experiments:
Test in all cases: growth of human tumour cells (NCI), 48 h
[1] = tested on: HOP-92
[2] = tested on: SK-MEL-28
[3] = tested on: UACC-257
[4] = tested on: HCC 2998
[5] = tested on: U-251
[6] = tested on: UO-31
[7] = tested on: HL-60
[8] = tested on: SF-295
[9] = tested on: RPMI-8226
[10] = tested on: KM12
[11] = tested on: UACC-62
[12] = tested on: T47D
[13] = tested on: OVCAR-8
[14] = tested on: SNB-75
[15] = tested on: NCI-H522
[16] = tested on: PC-3
[17] = tested on: DU-145
[18] = tested on: SK-MEL-2
[19] = tested on: K562
[20] = tested on: COLO 205
[21] = tested on: Hs-578T
[22] = tested on: A549
[23] = tested on: MDA-N
[24] = tested on: HCT-15
[25] = tested on: CAKI-1
[26] = tested on: ACHN
[27] = tested on: LOX IMVI
[28] = tested on: SK-MEL-5
[29] = tested on: IGROV-1
[30] = tested on: NCI-H226
[31] = tested on: TK-10
[32] = tested on: SK-OV-3
[33] = tested on: 786-0
[34] = tested on: NCI-H23
[35] = tested on: HOP-62
[36] = tested on: MDA-MB-435
[37] = tested on: M14
[38] = tested on: MDA-MB-231
[39] = tested on: EKVX
[40] = tested on: OVCAR-4
[41] = tested on: RXF 393
[42] = tested on: CCRF-CEM
[43] = tested on: SN12C
[44] = tested on: SR
[45] = tested on: MCF7
[46] = tested on: A498
[47] = tested on: NCI-H460
[48] = tested on: NCI/ADR-RES
[49] = tested on: SNB-19
[50] = tested on: SF-268
[51] = tested on: Malme-3M
[52] = tested on: HT-29
[53] = tested on: OVCAR-5
[54] = tested on: HCT-116
[55] = tested on: MOLT-4
[56] = tested on: SF-539
[57] = tested on: OVCAR-3
[58] = tested on: SW-620
[59] = tested on: BT-549

SMILES: C=C(C)[C@@]1(O)CCCC[C@@H]1CC(Sc1ccccc1)Sc1ccccc1
- GI50 [1]: 4.3 µM (inactive)
- GI50 [2]: 18.1 µM (inactive)
- GI50 [3]: 20.2 µM (inactive)
- GI50 [4]: 16.5 µM (inactive)
- GI50 [5]: 21.1 µM (inactive)
- GI50 [6]: 16 µM (inactive)
- GI50 [7]: 15.2 µM (inactive)
- GI50 [8]: 16.6 µM (inactive)
- GI50 [9]: 11.3 µM (inactive)
- GI50 [10]: 14.2 µM (inactive)
- GI50 [11]: 41.9 µM (inactive)
- GI50 [12]: 12.4 µM (inactive)
- GI50 [13]: 19.5 µM (inactive)
- GI50 [14]: 16 µM (inactive)
- GI50 [15]: 11.7 µM (inactive)
- GI50 [16]: 16.3 µM (inactive)
- GI50 [17]: 15.7 µM (inactive)
- GI50 [18]: 12.8 µM (inactive)
- GI50 [19]: 14.2 µM (inactive)
- GI50 [20]: 16.4 µM (inactive)
- GI50 [21]: 15.7 µM (inactive)
- GI50 [22]: 13.9 µM (inactive)
- GI50 [23]: 20 µM (inactive)
- GI50 [24]: 15 µM
- GI50 [25]: 14.9 µM (inactive)
- GI50 [26]: 37.6 µM (inactive)
- GI50 [27]: 14.6 µM (inactive)
- GI50 [28]: 15.7 µM (inactive)
- GI50 [29]: 16.4 µM (inactive)
- GI50 [30]: 16.3 µM (inactive)
- GI50 [31]: 15.5 µM (inactive)
- GI50 [32]: 19.6 µM (inactive)
- GI50 [33]: 17.8 µM (inactive)
- GI50 [34]: 14.2 µM (inactive)
- GI50 [35]: 16.5 µM (inactive)
- GI50 [36]: 16.2 µM (inactive)
- GI50 [37]: 17.9 µM (inactive)
- GI50 [38]: 17.1 µM (inactive)
- GI50 [39]: 13.4 µM (inactive)
- GI50 [40]: 13.6 µM (inactive)
- GI50 [41]: 13.4 µM (inactive)
- GI50 [42]: 23.4 µM (inactive)
- GI50 [43]: 16.4 µM (inactive)
- GI50 [44]: 14.1 µM (inactive)
- GI50 [45]: 24.7 µM (inactive)
- GI50 [46]: 29.9 µM (inactive)
- GI50 [47]: 13.9 µM (inactive)
- GI50 [48]: 16.3 µM (inactive)
- GI50 [49]: 18.5 µM (inactive)
- GI50 [50]: 15.7 µM (inactive)
- GI50 [51]: 12.6 µM (inactive)
- GI50 [52]: 18.2 µM (inactive)
- GI50 [53]: 16.3 µM (inactive)
- GI50 [54]: 12.5 µM (inactive)
- GI50 [55]: 9.08 µM (inactive)

SMILES: COc1ccc2nc3n(c2c1)C(=O)c1ccccc1-3
- GI50 [1]: > 100 µM (inactive)
- GI50 [2]: > 100 µM (inactive)
- GI50 [3]: > 100 µM (inactive)
- GI50 [4]: > 100 µM (inactive)
- GI50 [5]: > 100 µM (inactive)
- GI50 [6]: > 100 µM (inactive)
- GI50 [56]: > 100 µM (inactive)
- GI50 [7]: > 100 µM (inactive)
- GI50 [8]: > 100 µM (inactive)
- GI50 [9]: > 100 µM (inactive)
- GI50 [10]: > 100 µM (inactive)
- GI50 [11]: > 100 µM (inactive)
- GI50 [13]: > 100 µM (inactive)
- GI50 [14]: > 100 µM (inactive)
- GI50 [15]: > 100 µM (inactive)
- GI50 [16]: > 100 µM (inactive)
- GI50 [17]: > 100 µM (inactive)
- GI50 [18]: > 100 µM (inactive)
- GI50 [19]: > 100 µM (inactive)
- GI50 [20]: > 100 µM (inactive)
- GI50 [22]: > 100 µM (inactive)
- GI50 [23]: > 100 µM (inactive)
- GI50 [24]: > 100 µM
- GI50 [25]: > 100 µM (inactive)
- GI50 [26]: > 100 µM (inactive)
- GI50 [57]: > 100 µM (inactive)
- GI50 [28]: > 100 µM (inactive)
- GI50 [58]: > 100 µM (inactive)
- GI50 [29]: > 100 µM (inactive)
- GI50 [30]: > 100 µM (inactive)
- GI50 [31]: > 100 µM (inactive)
- GI50 [32]: 15.1 µM (inactive)
- GI50 [33]: > 100 µM (inactive)
- GI50 [34]: > 100 µM (inactive)
- GI50 [35]: > 100 µM (inactive)
- GI50 [37]: > 100 µM (inactive)
- GI50 [39]: > 100 µM (inactive)
- GI50 [40]: > 100 µM (inactive)
- GI50 [41]: > 100 µM (inactive)
- GI50 [42]: > 100 µM (inactive)
- GI50 [43]: > 100 µM (inactive)
- GI50 [44]: > 100 µM (inactive)
- GI50 [45]: > 100 µM (inactive)
- GI50 [47]: > 100 µM (inactive)
- GI50 [48]: > 100 µM (inactive)
- GI50 [49]: > 100 µM (inactive)
- GI50 [50]: > 100 µM (inactive)
- GI50 [51]: > 100 µM (inactive)
- GI50 [59]: > 10 µM (inactive)
- GI50 [52]: > 100 µM (inactive)
- GI50 [53]: > 100 µM (inactive)
- GI50 [54]: > 100 µM (inactive)
- GI50 [55]: > 100 µM (inactive)
